# Assay results as given in patent US20050245563A1 (Millennium Pharmaceuticals, Inc., priority 2003, published 2005).
# Target: T1, human Chk1 (GST-Chk1) (Homo sapiens, UniProt O14757)
# T1 construct: made in house; host or cells: insect cells (baculovirus, Bac-to-Bac)
# T1 sequence (O14757 1-476): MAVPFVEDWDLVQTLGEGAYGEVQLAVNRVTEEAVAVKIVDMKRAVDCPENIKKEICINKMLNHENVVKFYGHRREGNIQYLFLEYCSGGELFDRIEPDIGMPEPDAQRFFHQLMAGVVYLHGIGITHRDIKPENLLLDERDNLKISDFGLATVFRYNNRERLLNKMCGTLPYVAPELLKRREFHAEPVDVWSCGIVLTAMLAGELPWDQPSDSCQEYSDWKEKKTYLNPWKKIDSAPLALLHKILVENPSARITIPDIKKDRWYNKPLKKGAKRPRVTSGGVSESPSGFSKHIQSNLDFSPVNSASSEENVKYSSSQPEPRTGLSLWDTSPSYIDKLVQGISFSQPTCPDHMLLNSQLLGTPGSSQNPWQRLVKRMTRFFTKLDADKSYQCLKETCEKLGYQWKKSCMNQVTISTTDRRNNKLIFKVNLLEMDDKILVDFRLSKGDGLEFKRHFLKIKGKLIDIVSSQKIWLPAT
# Assay: Chk1 FlashPlate kinase assay
# Format: biochemical
# Conditions: 8.7 nM GST-Chk1, 1 uM ATP, 33P incorporation into peptide substrate
# Summary of the method: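 GST-tagged human Chk1 (8.7 nM), baculovirus-expressed, with 3 uM biotinylated peptide, 1 uM ATP plus ^33P-γ-ATP, in MES/EGTA pH 8.0, DTT, Tween 20, 4% DMSO; 30 min at room temperature. EDTA-stopped; phosphopeptide captured on streptavidin FlashPlates and ^33P counted by scintillation.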
row,Compound,IC50 [nM]
1,"Cc1[nH]nc2c1c(=O)n(CCCNC(=O)C(Cc1ccc(F)cc1)NC(=O)OC(C)(C)C)c1ccccc21 (stereo not shown) [Example 95, {2-(4-Fluoro-phenyl)-1-[3-(3-methyl-4-oxo-2,4-dihydro-pyrazolo[4,3-c]quinolin-5-yl)-propylcarbamoyl]-ethyl}-carbamic acid tert-butyl ester]",1000 to 20000
2,"Cc1n[nH]c2c1c(=O)n(CCCNCCc1ccccc1)c1ccccc21 [Example 51, 3-Methyl-5-(3-phenethylamino-propyl)-1,5-dihydro-pyrazolo[4,3-c]quinolin4-one]",< 1000
3,"Cc1[nH]nc2c1c(=O)n(CCCN)c1ccc(N3CCN(C)CC3)cc21 [Example 121, 5-(3-Amino-propyl)-3-methyl-8-(4-methyl-piperazin-1-yl)-2,5-dihydro-pyrazolo[4,3-c]quinolin-4-one]",< 1000
4,"COc1ccc(C(=O)NCCCn2c(=O)c3c(C)[nH]nc3c3ccccc32)cc1 [Example 69, 4-Methoxy-N-[3-(3-methyl-4-oxo-2,4,5a,9a-tetrahydro-pyrazolo[4,3-c]quinolin-5-yl)-propyl]-benzamide]",< 1000
5,"Cc1[nH]nc2c1c(=O)n(CCCNC(=O)[C@@H](N)Cc1ccc(F)cc1)c1ccccc21 [Example 104, 2-Amino-3-(4-fluoro-phenyl)-N-[3-(3-methyl-4-oxo-2,4-dihydro-pyrazolo[4,3-c]quinolin-5-yl)-propyl]-propionamide]",< 1000
6,"Cc1[nH]nc2c1c(=O)n(CCCNC(=O)CN)c1ccccc21 [Example 122, 2-Amino-N-[3-(3-methyl-4-oxo-2,4-dihydro-pyrazolo[4,3-c]quinolin-5-yl)-propyl]-acetamide]",< 1000
7,"Cc1n[nH]c2c1c(=O)n(CCCN)c1ccccc21 [Example 15, 5-(3-Amino-propyl)-3-methyl-1,5-dihydro-pyrazolo[4,3-c]quinolin-4-one]",< 1000

# Next, values leading:
row,IC50 [nM],Compound
1,1000 to 20000,"Cc1[nH]nc2c1c(=O)n(CCNC(=O)N1CCOCC1)c1ccccc21 [Example 112, Morpholine-4-carboxylic acid [2-(3-methyl-4-oxo-2,4-dihydro-pyrazolo[4,3-c]quinolin-5-yl)-ethyl]-amide]"
2,< 1000,"Cc1n[nH]c2c1c(=O)n(CCCNC(=O)Nc1ccccc1)c1ccccc21 [Example 66, 1-[3-(3-Methyl-4-oxo-1,4-dihydro-pyrazolo[4,3-c]quinolin-5-yl)-propyl]-3-phenyl-urea]"
3,< 1000,"Cc1[nH]nc2c1c(=O)n(CCCNC(=O)CCN)c1ccccc21 [Example 124, 3-Amino-N-[3-(3-methyl-4-oxo-2,4-dihydro-pyrazolo[4,3-c]quinolin-5-yl)-propyl]-propionamide]"
4,< 1000,"Cc1n[nH]c2c1c(=O)n(CCCCNC(=O)OC(C)(C)C)c1ccc(Br)cc21 [Example 29, [4-(8-Bromo-3-methyl-4-oxo-1,4-dihydro-pyrazolo[4,3-c]quinolin-5-yl)-butyl]-carbamic acid tert-butyl ester]"
5,1000 to 20000,"CC(=O)OCCn1c(=O)c2c(C)n[nH]c2c2ccccc21 [Example 3, Acetic acid 2-(3-methyl-4-oxo-1,4-dihydro-pyrazolo[4,3-c]quinolin-5-yl)-ethyl ester]"
6,< 1000,"Cc1[nH]nc2c1c(=O)n(CCCN)c1ccc(Cl)cc21 [Example 32, 5-(3-Amino-propyl)-8-chloro-3-methyl-1,5-dihydro-pyrazolo[4,3-c]quinolin-4-one]"
7,< 1000,"Cc1[nH]nc2c1c(=O)n(CCCNC(=O)c1ccc(C(F)(F)F)cc1)c1ccccc21 [Example 72, N-[3-(3-Methyl-4-oxo-2,4-dihydro-pyrazolo[4,3-c]quinolin-5-yl)-propyl]-4-trifluoromethyl-benzamide]"
8,< 1000,"Cc1n[nH]c2c1c(=O)n(CCCOCc1ccccc1)c1ccccc21 [Example 12, 5-(3-Benzyloxy-propyl)-3-methyl-1,5-dihydro-pyrazolo[4,3-c]quinolin-4-one]"
9,1000 to 20000,"Cc1[nH]nc2c1c(=O)n(CCNC(=O)C1CCCC1)c1ccccc21 [Example 94, Cyclopentanecarboxylic acid [2-(3-methyl-4-oxo-2,4-dihydro-pyrazolo[4,3-c]quinolin-5-yl)-ethyl]-amide]"
